Assay results from PubChem BioAssay AID330 (DTP/NCI, 2004).
“And” between values parts separate entries of the source, which are not always exact repeats. Identical values can stand only once. Inconclusive results and toxic doses are left out. Bridge positions count the residues as written; N and C are the ends. Peptide text beside a SMILES is read from it. I, II: the chains in the order shown. * marks the point of attachment. Quinoxaline2carbonyl = O=C(c1cnc2ccccc2n1)*

System: P388 leukemia ip, CD2F1 mice, survival T/C
Test: NCI In Vivo Anticancer Drug Screen. Data for tumor model P388 Leukemia (intraperitoneal) in CD2F1 (CDF1) mice
Conditions: endpoint: median survival time, higher = longer survival
Method in brief: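 Mice carrying the transplanted tumor received test compound or vehicle. Survival was recorded in each group, and the value is the treated-group measurement divided by that of the vehicle-treated control group.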

[1] = dose: 5.0 mg/kg/injection, schedule: Q01DX005 (ip), vehicle: Klucel (hydroxypropylcellulose) (HPC)
[2] = dose: 10.0 mg/kg/injection, schedule: Q01DX005 (ip), vehicle: Klucel (hydroxypropylcellulose) (HPC)
[3] = dose: 20.0 mg/kg/injection, schedule: Q01DX005 (ip), vehicle: Klucel (hydroxypropylcellulose) (HPC)
[4] = dose: 40.0 mg/kg/injection, schedule: Q01DX005 (ip), vehicle: Klucel (hydroxypropylcellulose) (HPC)
[5] = dose: 60.0 mg/kg/injection, schedule: Q01DX005 (ip), vehicle: Klucel (hydroxypropylcellulose) (HPC)
[6] = dose: 100.0 mg/kg/injection, schedule: Q04DX002 (ip), vehicle: saline with Tween-80
[7] = dose: 200.0 mg/kg/injection, schedule: Q04DX002 (ip), vehicle: saline with Tween-80
[8] = dose: 400.0 mg/kg/injection, schedule: Q04DX002 (ip), vehicle: saline with Tween-80
[9] = dose: 60.0 mg/kg/injection, schedule: Q01DX005 (ip), vehicle: saline with Tween-80
[10] = dose: 120.0 mg/kg/injection, schedule: Q01DX005 (ip), vehicle: saline with Tween-80
[11] = dose: 50.0 mg/kg/injection, schedule: Q01DX009 (ip), vehicle: Klucel (hydroxypropylcellulose) (HPC)
[12] = dose: 100.0 mg/kg/injection, schedule: Q01DX009 (ip), vehicle: Klucel (hydroxypropylcellulose) (HPC)
[13] = dose: 200.0 mg/kg/injection, schedule: Q01DX009 (ip), vehicle: Klucel (hydroxypropylcellulose) (HPC)
[14] = dose: 50.0 mg/kg/injection, schedule: Q01DX009 (ip), vehicle: saline with Tween-80
[15] = dose: 100.0 mg/kg/injection, schedule: Q01DX009 (ip), vehicle: saline with Tween-80
[16] = dose: 50.0 mg/kg/injection, schedule: Q01DX005 (ip), vehicle: Klucel (hydroxypropylcellulose) (HPC)
[17] = dose: 100.0 mg/kg/injection, schedule: Q01DX005 (ip), vehicle: Klucel (hydroxypropylcellulose) (HPC)
[18] = dose: 200.0 mg/kg/injection, schedule: Q01DX005 (ip), vehicle: Klucel (hydroxypropylcellulose) (HPC)
[19] = dose: 100.0 mg/kg/injection, schedule: Q01DX001 (ip), vehicle: saline
[20] = dose: 200.0 mg/kg/injection, schedule: Q01DX001 (ip), vehicle: saline
[21] = dose: 400.0 mg/kg/injection, schedule: Q01DX001 (ip), vehicle: saline
[22] = dose: 12.5 mg/kg/injection, schedule: Q01DX009 (ip), vehicle: Klucel (hydroxypropylcellulose) (HPC)
[23] = dose: 25.0 mg/kg/injection, schedule: Q01DX009 (ip), vehicle: Klucel (hydroxypropylcellulose) (HPC)
[24] = dose: 200.0 mg/kg/injection, schedule: Q01DX009 (ip), vehicle: saline with Tween-80

CC1NC(=O)C(NC(=O)c2cnc3ccccc3n2)COC(=O)C(C(C)C)NC(=O)C2CSSCC(NC1=O)C(=O)NC(C(C)C)C(=O)OCC(NC(=O)c1cnc3ccccc3n1)C(=O)NC(C)C(=O)N2 (configuration not stated) (I: Quinoxaline2carbonyl-SACV / II: Quinoxaline2carbonyl-SACV; ester I:1-II:C, I:C-II:1; disulfide I:3-II:3; configuration not given here)
T/C (dose: 1.25 mg/kg/injection, schedule: Q01DX005 (ip), vehicle: Klucel (hydroxypropylcellulose) (HPC)): 96 % of control
T/C (dose: 2.5 mg/kg/injection, schedule: Q01DX005 (ip), vehicle: Klucel (hydroxypropylcellulose) (HPC)): 98 % of control
T/C [1]: 95 % of control
T/C [2]: 90 % of control
T/C [3]: 95 % of control
T/C [4]: 93 % of control
T/C [5]: 95 % of control

Cc1cc(C)c(-c2c(Br)c(OC(=O)CO[C@@H]3C[C@H](C)CC[C@H]3C(C)C)c(-c3c(C)cc(C)c(Br)c3C)c(Br)c2OC(=O)CO[C@@H]2C[C@H](C)CC[C@H]2C(C)C)c(C)c1Br
T/C (dose: 50.0 mg/kg/injection, schedule: Q01DX005 (ip), vehicle: saline with Tween-80): 107 % of control
T/C (dose: 100.0 mg/kg/injection, schedule: Q01DX005 (ip), vehicle: saline with Tween-80): 100 % of control
T/C (dose: 200.0 mg/kg/injection, schedule: Q01DX005 (ip), vehicle: saline with Tween-80): 88 % of control

c1ccc(C2(N3CCOCC3)CSC2)cc1
T/C [6]: 95 % of control
T/C [7]: 98 % of control
T/C [8]: 98 % of control

CC(=O)OCCOCNC(=S)NN1CCOCC1
T/C [9]: 100 % of control
T/C [10]: 95 % of control
T/C (dose: 240.0 mg/kg/injection, schedule: Q01DX005 (ip), vehicle: saline with Tween-80): 100 % of control

O=S(=O)(Nc1cc2c3ccccc3ccc2c2ccccc12)c1ccccc1
T/C [11]: 96 % of control
T/C [12]: 105 % of control
T/C [13]: 100 % of control

c1ccc2c(c1)[nH]c1nc3ccncc3nc12
T/C [14]: 90 % of control
T/C [15]: 90 % of control

c1cc2c3c(c1)c1cc4c(cc1c[n+]3CC2)OCO4
T/C (dose: 25.0 mg/kg/injection, schedule: Q01DX009 (ip), vehicle: other): 153 % of control
T/C (dose: 25.0 mg/kg/injection, schedule: Q01DX009 (ip), vehicle: water): 91 % of control

Nc1nc(-c2cccc([N+](=O)[O-])c2)cc(-c2cc(-c3cccc([N+](=O)[O-])c3)nc(N)n2)n1
T/C [5]: 94 % of control
T/C (dose: 120.0 mg/kg/injection, schedule: Q01DX005 (ip), vehicle: Klucel (hydroxypropylcellulose) (HPC)): 90 % of control
T/C (dose: 240.0 mg/kg/injection, schedule: Q01DX005 (ip), vehicle: Klucel (hydroxypropylcellulose) (HPC)): 96 % of control

Oc1cc2c(cc1-c1cc3c(cc1O)OCO3)OCO2
T/C (dose: 25.0 mg/kg/injection, schedule: Q01DX005 (ip), vehicle: Klucel (hydroxypropylcellulose) (HPC)): 100 % of control
T/C [16]: 100 % of control
T/C [17]: 105 % of control
T/C [18]: 100 % of control

CCOC(=O)C1=C(NC23CC4CC(CC(C4)C2)C3)OCC1=O
T/C [9]: 107 % of control
T/C [10]: 110 % of control

COC(C#N)c1ccccc1 (configuration not stated)
T/C (dose: 6.25 mg/kg/injection, schedule: Q04DX003 (ip), vehicle: saline with Tween-80): 100 % of control
T/C (dose: 12.5 mg/kg/injection, schedule: Q04DX003 (ip), vehicle: saline with Tween-80): 100 % of control
T/C (dose: 25.0 mg/kg/injection, schedule: Q04DX003 (ip), vehicle: saline with Tween-80): 108 % of control and 115 % of control and 91 % of control
T/C (dose: 25.0 mg/kg/injection, schedule: Q04DX003 (ip), vehicle: saline): 98 % of control

O=C(O)CCCCCCCCCCCCCCC1C=CCC1 (configuration not stated)
T/C [19]: 101 % of control
T/C [20]: 100 % of control
T/C [21]: 98 % of control

O=C1NC(=O)NC(C(=O)O)N1
T/C [22]: 105 % of control
T/C [23]: 105 % of control
T/C (dose: 25.0 mg/kg/injection, schedule: Q01DX009 (ip), vehicle: saline with Tween-80): 94 % of control
T/C (dose: 50.0 mg/kg/injection, schedule: Q01DX009 (ip), vehicle: DMSO): 103 % of control
T/C [11]: 104 % of control
T/C [14]: 100 % of control
T/C (dose: 100.0 mg/kg/injection, schedule: Q01DX009 (ip), vehicle: DMSO): 100 % of control
T/C [12]: 104 % of control
T/C [15]: 100 % of control
T/C (dose: 200.0 mg/kg/injection, schedule: Q01DX009 (ip), vehicle: DMSO): 97 % of control
T/C [13]: 115 % of control
T/C [24]: 95 % of control

C(=C(Sc1ccccc1)Sc1ccccc1)C(Sc1ccccc1)c1ccccc1 (configuration not stated)
T/C [11]: 93 % of control
T/C [12]: 96 % of control
T/C [13]: 90 % of control

CCOC(=O)Nc1nc2ccc(SC#N)cc2s1
T/C (dose: 6.25 mg/kg/injection, schedule: Q01DX009 (ip), vehicle: Klucel (hydroxypropylcellulose) (HPC)): 107 % of control
T/C [22]: 107 % of control
T/C [23]: 96 % of control

COC(=O)C1=C(c2ccccc2)ON2C(C)(C)COC12C (configuration not stated)
T/C [16]: 106 % of control
T/C [17]: 106 % of control
T/C [18]: 100 % of control

CS(=O)(=O)O
T/C (dose: 50.0 mg/kg/injection, schedule: Q01DX009 (ip), vehicle: saline): 100 % of control
T/C (dose: 100.0 mg/kg/injection, schedule: Q01DX009 (ip), vehicle: saline): 110 % of control
T/C (dose: 200.0 mg/kg/injection, schedule: Q01DX009 (ip), vehicle: saline): 108 % of control

O=C1CC2(CC=CCC23OCCO3)CC(CI)O1 (configuration not stated)
T/C (dose: 2.5 mg/kg/injection, schedule: Q01DX005 (ip), vehicle: acid diluted with saline): 106 % of control
T/C [1]: 100 % of control
T/C (dose: 5.0 mg/kg/injection, schedule: Q01DX005 (ip), vehicle: acid diluted with saline): 111 % of control
T/C [2]: 100 % of control
T/C (dose: 10.0 mg/kg/injection, schedule: Q01DX005 (ip), vehicle: acid diluted with saline): 93 % of control
T/C [3]: 98 % of control
T/C (dose: 20.0 mg/kg/injection, schedule: Q01DX005 (ip), vehicle: acid diluted with saline): 100 % of control
T/C [4]: 103 % of control

Oc1[nH]c(N=C2N=c3ccccc3=N2)c2ccccc12
T/C [14]: 118 % of control
T/C [15]: 103 % of control
T/C [24]: 104 % of control

CSCCC(NC(=O)C(F)(F)F)C(=O)O (configuration not stated)
T/C [14]: 106 % of control
T/C [15]: 94 % of control
T/C [24]: 94 % of control

NC(=O)/C=C1\NC(=O)CS1
T/C (dose: 100.0 mg/kg/injection, schedule: Q01DX009 (ip), vehicle: saline sonified): 95 % of control
T/C (dose: 200.0 mg/kg/injection, schedule: Q01DX009 (ip), vehicle: saline sonified): 90 % of control
T/C (dose: 400.0 mg/kg/injection, schedule: Q01DX009 (ip), vehicle: saline sonified): 95 % of control

O=C(CCl)Nc1ccc2c(c1)C(=O)c1cccn1-2
T/C (dose: 25.0 mg/kg/injection, schedule: Q01DX001 (ip), vehicle: Klucel (hydroxypropylcellulose) (HPC)): 97 % of control
T/C (dose: 25.0 mg/kg/injection, schedule: Q04DX003 (ip), vehicle: Klucel (hydroxypropylcellulose) (HPC)): 92 % of control
T/C (dose: 50.0 mg/kg/injection, schedule: Q01DX001 (ip), vehicle: Klucel (hydroxypropylcellulose) (HPC)): 97 % of control
T/C (dose: 50.0 mg/kg/injection, schedule: Q04DX003 (ip), vehicle: Klucel (hydroxypropylcellulose) (HPC)): 97 % of control
T/C (dose: 100.0 mg/kg/injection, schedule: Q01DX001 (ip), vehicle: Klucel (hydroxypropylcellulose) (HPC)): 96 % of control
T/C (dose: 100.0 mg/kg/injection, schedule: Q04DX003 (ip), vehicle: Klucel (hydroxypropylcellulose) (HPC)): 107 % of control

O=C1c2ccccc2-c2nc3ccccc3n21
T/C [19]: 100 % of control
T/C [6]: 100 % of control
T/C [20]: 108 % of control
T/C [7]: 106 % of control
T/C [21]: 106 % of control
T/C [8]: 100 % of control
